Source: patent publication US20100256104A1, “NOVEL AMIDE COMPOUNDS” (ASTRAZENECA R&D, priority 2009, published 2010)

target: T1, recombinant human GR (Homo sapiens, UniProt P04150); test: Human Glucocorticoid Receptor (GR) Assay, fluorescence polarization competition with GS Red tracer; conditions: 2 hours at room temperature, 100% control 10 μM Dexamethasone, XLfit model 205, read-out: Inhibition of GR binding, IC50
T1 construct: purchased Panvera/Invitrogen P2812 (kit P2893)
T1 sequence (P04150 1-777): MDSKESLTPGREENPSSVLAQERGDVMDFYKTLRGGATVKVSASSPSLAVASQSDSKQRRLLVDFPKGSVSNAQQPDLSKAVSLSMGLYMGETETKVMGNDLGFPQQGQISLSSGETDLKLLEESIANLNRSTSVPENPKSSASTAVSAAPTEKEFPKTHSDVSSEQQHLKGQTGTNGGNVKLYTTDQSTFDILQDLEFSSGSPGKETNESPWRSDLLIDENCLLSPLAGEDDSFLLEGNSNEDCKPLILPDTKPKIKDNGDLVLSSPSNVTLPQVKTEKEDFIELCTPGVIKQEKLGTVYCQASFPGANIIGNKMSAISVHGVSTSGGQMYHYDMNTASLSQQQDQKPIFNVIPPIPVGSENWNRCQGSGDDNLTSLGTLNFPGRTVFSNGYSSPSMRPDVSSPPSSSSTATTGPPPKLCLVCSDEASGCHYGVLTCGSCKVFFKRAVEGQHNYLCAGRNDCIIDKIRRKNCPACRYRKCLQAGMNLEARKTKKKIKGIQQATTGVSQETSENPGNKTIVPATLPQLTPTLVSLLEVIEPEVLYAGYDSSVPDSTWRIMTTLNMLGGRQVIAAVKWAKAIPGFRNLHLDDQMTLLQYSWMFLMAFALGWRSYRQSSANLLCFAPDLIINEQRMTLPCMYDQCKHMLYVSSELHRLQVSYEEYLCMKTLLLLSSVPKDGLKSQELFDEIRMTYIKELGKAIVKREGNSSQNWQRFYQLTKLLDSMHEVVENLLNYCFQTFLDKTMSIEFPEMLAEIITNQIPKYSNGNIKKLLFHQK
Method: Human Glucocorticoid Receptor (GR) Assay The assay is based on a commercial kit from Panvera/Invitrogen (Part number P2893). The assay technology is fluorescence polarization. The kit utilises recombinant human GR (Panvera, Part number P2812), a Fluoromone™ labelled tracer (GS Red, Panvera, Part number P2894) and a Stabilizing Peptide 10X (Panvera, Part number P2815). The GR and Stabilizing Peptide reagents are stored at −70° C. while the GS Red is stored at −20° C. Also included in the kit are 1M DTT (Panvera, Part number P2325, stored at −20° C.) and GR Screening buffer 10X (Panvera, Part number P2814, stored at −70° C. initially but once thawed stored at room temperature). Avoid repeated freeze/thaws for all reagents. The GR Screening buffer 10X comprises 100 mM potassium phosphate, 200 mM sodium molybdate, 1 mM EDTA and 20% DMSO. Test compounds (1 μL) and controls (1 μL) in 100% DMSO were added to black polystyrene 384-well plates (Greiner low volume black flat-bottom, part number 784076). 0% control was 100% DMSO and 100% control was 10 μM Dexamethasone. Background solution (8 μL; assay buffer 10X, Stabilizing Peptide, DTT and ice cold MQ water) was added to the background wells. GS Red solution (7 μL; assay buffer 10X, Stabilizing Peptide, DTT, GS Red and ice cold water) was added to all wells except background wells. GR solution (7 μL; assay buffer 10X, Stabilizing Peptide, DTT, GR and ice cold water) was added to all wells. The plate was sealed and incubated in a dark at room temperature for 2 hours. The plate was read in an Analyst plate reader (LJL Biosystems/Molecular Devices Corporation) or other similar plate reader capable of recording fluorescence polarization (excitation wavelength 530 nm, emission wavelength 590 nm and a dichroic mirror at 561 nm).

Point of comparison: `COCC(=O)O[C@]1(C(=O)SCF)CC[C@H]2[C@@H]3CCC4=Cc5c(cnn5-c5cccc(C(=O)NCCSC)c5)C[C@]4(C)[C@H]3[C@@H](O)C[C@@]21C` [Example 8, (1R,3aS,3bS,10aR,10bS,11S,12aS)-1-{[(Fluoromethyl)sulfanyl]carbonyl}-11-hydroxy-10a,12a-dimethyl-7-(3-{[2-(methylsulfanyl)ethyl]carbamoyl}phenyl)-1,2,3,3a,3b,4,5,7,10,10a,10b,11,12,12a-tetradecahydrocyclopenta[5,6]naphtho[1,2-f]indazol-1-yl methoxyacetate], IC50 1.8 nM. Against it:
- C[C@H]1C[C@@H]2[C@H]([C@@H](O)C[C@@]3(C)[C@H]2CC[C@]3(OC(=O)[C@H]2CCCO2)C(=O)SCF)[C@@]2(C)Cc3cnn(-c4cccc(C(=O)NCC(N)=O)c4)c3C=C12 [Example 30, (1R,3aS,3bS,5S, 10aR,10bS,11S,12aS)-7-{3-[(2-amino-2-oxoethyl)carbamoyl]phenyl}-1-{[(fluoromethyl)sulfanyl]carbonyl}-11-hydroxy-5,10a,12a-trimethyl-1,2,3,3a,3b,4,5,7,10, 10a,10b,11,12,12a-tetradecahydrocyclo-penta[5,6]naphtho [1,2-f]indazol-1-yl (2R)-tetrahydrofuran-2-carboxylate] — within 1.5-fold, 2.2 nM
- COCC(=O)O[C@]1(C(=O)SCF)CC[C@H]2[C@@H]3CCC4=Cc5c(cnn5-c5cccc(C(=O)NCC(N)=O)c5)C[C@]4(C)[C@@]3(F)[C@@H](O)C[C@@]21C [Example 17, (1R,3aS,3bS,10aS,10bR,11S, 12aS)-7-{3-[(2-amino-2-oxoethyl)carbamoyl]-phenyl}-10b-fluoro-1-{[(fluoromethyl)sulfanyl]carbonyl}-11-hydroxy-10a,12a-dimethyl-1,2,3,3a,3b,4,5,7,10,10a,10b, 11,12,12a-tetradecahydro-cyclopenta[5,6]naphtho[1,2-f] indazol-1-yl methoxyacetate] — 1.7-fold higher, 3 nM
- CCC(=O)O[C@]1(C(=O)SCC#N)CC[C@H]2[C@@H]3CCC4=Cc5c(cnn5-c5cccc(C(=O)NC6CCS(=O)(=O)C6)c5)C[C@]4(C)[C@H]3[C@@H](O)C[C@@]21C (stereo partly drawn) [Example 12, (1R,3aS,3bS,10aR,10bS,11S,12aS)-1-{[(Cyanomethyl)sulfanyl]carbonyl}-7-{3-[(1,1-dioxidotetrahydrothiophen-3-yl)carbamoyl]phenyl}-11-hydroxy-10a,12a-dimethyl-1,2,3,3a,3b,4,5,7,10,10a,10b,11,12,12a-tetradecahydrocyclopenta[5,6]naphtho[1,2-f]indazol-1-yl propanoate] — 2.4-fold higher, 4.3 nM
- CCC(=O)O[C@]1(C(=O)SCCO)CC[C@H]2[C@@H]3CCC4=Cc5c(cnn5-c5cccc(C(=O)N6CCC[C@@H]6C(N)=O)c5)C[C@]4(C)[C@H]3[C@@H](O)C[C@@]21C [Example 48, (1R,3aS,3bS,10aR, 10bS,11S,12aS)-7-(3-{[(2R)-2-carbamoyl-pyrrolidin-1-yl]carbonyl}phenyl)-11-hydroxy-1-{[(2-hydroxyethyl)sulfanyl]carbonyl}-10a,12a-dimethyl-1,2,3,3a,3b,4,5,7,10, 10a,10b,11,12,12a-tetradecahydrocyclo-penta[5,6]naphtho [1,2-f]indazol-1-yl propanoate] — 3.5-fold higher, 6.3 nM
- CCC(=O)O[C@]1(C(=O)SCF)CC[C@H]2[C@@H]3CCC4=Cc5c(cnn5-c5cccc(C(=O)NCC(=O)NC)c5)C[C@]4(C)[C@@]3(F)[C@@H](O)C[C@@]21C [Example 36, (1R,3aS,3bS,10aS, 10bR,11S,12aS)-10b-fluoro-1-{[(fluoromethyl)sulfanyl]carbonyl}-11-hydroxy-10a,12a-dimethyl-7-(3-{[2-(methylamino)-2-oxoethyl]carbamoyl}phenyl)-1,2,3,3a,3b,4,5,7,10,10a, 10b,11,12,12a-tetradecahydrocyclo-penta[5,6]naphtho [1,2-f]indazol-1-yl propanoate] — 2.1-fold lower, 0.84 nM
- CCC(=O)O[C@]1(C(=O)SCC#N)CC[C@H]2[C@@H]3CCC4=Cc5c(cnn5-c5cccc(C(=O)N6CCC[C@@H]6C(N)=O)c5)C[C@]4(C)[C@@]3(F)[C@@H](O)C[C@@]21C [Example 60, (1R,3aS,3bS,10aS, 10bR,11S,12aS)-7-(3-{[(2R)-2-carbamoyl-pyrrolidin-1-yl]carbonyl}phenyl)-1-{[(cyanomethyl)sulfanyl]carbonyl}-10b-fluoro-11-hydroxy-10a,12a-dimethyl-1,2,3,3a, 3b,4,5,7,10,- 10a,10b,11,12,12a-tetradecahydro-cyclopenta[5,6]naphtho [1,2-f]indazol-1-yl propanoate] — 1.8-fold higher, 3.3 nM
- C[C@H]1C[C@@H]2[C@H]([C@@H](O)C[C@@]3(C)[C@H]2CC[C@]3(OC(=O)C2CC2)C(=O)SCF)[C@@]2(C)Cc3cnn(-c4cccc(C(=O)NCC(N)=O)c4)c3C=C12 [Example 31, (1R,3aS,3bS,5S, 10aR,10bS,11S,12aS)-7-{3-[(2-amino-2-oxoethyl)carbamoyl]phenyl}-1-{(fluoromethyl)sulfanyl] carbonyl}-11-hydroxy-5,10a,12a-trimethyl-1,2,3,3a,3b,4,5,7,10, 10a,10b,11,12,12a-tetradecahydrocyclo-penta[5,6]naphtho [1,2-f]indazol-1-yl cyclopropanecarboxylate] — 1.5-fold lower, 1.2 nM
- CCC(=O)O[C@]1(C(=O)SCC#N)CC[C@H]2[C@@H]3CCC4=Cc5c(cnn5-c5cccc(C(=O)NCCSC)c5)C[C@]4(C)[C@H]3[C@@H](O)C[C@@]21C [Example 6, (1R,3aS,3bS,10aR,10bS,11S,12aS)-1-{[(Cyanomethyl)sulfanyl]carbonyl}-11-hydroxy-10a,12a-dimethyl-7-(3-{[2-(methylsulfanyl)ethyl]carbamoyl}phenyl)-1,2,3,3a,3b,4,5,7,10,10a,10b,11,12,12a-tetradecahydrocyclopenta[5,6]naphtho[1,2-f]indazol-1-yl propanoate] — within 1.5-fold, 1.7 nM
- CSCCNC(=O)c1cccc(-n2ncc3c2C=C2CC[C@@H]4[C@H]([C@@H](O)C[C@@]5(C)[C@H]4CC[C@]5(OC(=O)C4CC4)C(=O)SCC#N)[C@@]2(C)C3)c1 [Example 9, (1R,3aS,3bS,10aR,10bS,11S,12aS)-1-{[(Cyanomethyl)sulfanyl]carbonyl}-11-hydroxy-10a,12a-dimethyl-7-(3-{[2-(methylsulfanyl)ethyl]carbamoyl}phenyl)-1,2,3,3a,3b,4,5,7,10,10a,10b,11,12,12a-tetradecahydrocyclopenta[5,6]naphtho[1,2-f]indazol-1-yl cyclopropanecarboxylate] — 2-fold lower, 0.91 nM
- CCC(=O)O[C@]1(C(=O)SCF)CC[C@H]2[C@@H]3CCC4=Cc5c(cnn5-c5cccc(C(=O)N(C)CC(N)=O)c5)C[C@]4(C)[C@@]3(F)[C@@H](O)C[C@@]21C [Example 34, (1R,3aS,3bS,10aS, 10bR,11S,12aS)-7-{3-[(2-amino-2-oxoethyl)(methyl)carbamoyl]phenyl}-10b-fluoro-1-{[(fluoromethyl)sulfanyl]carbonyl}-11-hydroxy-10a,12a-dimethyl-1,2,3,3a,3b,4,5,7,10, 10a,10b,11,12,12a-tetradecahydrocyclo-penta[5,6]naphtho [1,2-f]indazol-1-yl propanoate] — 2.1-fold higher, 3.8 nM
- CCC(=O)O[C@]1(C(=O)SCF)CC[C@H]2[C@@H]3CCC4=Cc5c(cnn5-c5cccc(C(=O)N[C@H](C)C(N)=O)c5)C[C@]4(C)[C@@]3(F)[C@@H](O)C[C@@]21C [Example 32, (1R,3aS,3bS,10aS, 10bR,11S,12aS)-7-(3-{[(1R)-2-amino-1-methyl-2-oxoethyl]carbamoyl}phenyl)-10b-fluoro-1-{[(fluoromethyl)-sulfanyl]carbonyl}-11-hydroxy-10a,12a-dimethyl-1,2,3,3a,3b,4,5,7,10, 10a,10b,11,12,12a-tetradecahydrocyclo-penta[5,6]naphtho [1,2-f]indazol-1-yl propanoate] — within 1.5-fold, 2.5 nM
